Activity calls are given as the source filed them. The calls are words filed in the database; no cut-off is given here.
Tests used:
[1] = Inhibition of EGFR L858R/T790M double mutant (unknown origin); set-up: species or system Homo sapiens
[2] = target: Receptor tyrosine-protein kinase erbB-2 (Homo sapiens, UniProt P04626); assay: Inhibition of HER2 (unknown origin)
[3] = Inhibition of HER2-A775-G776 ins YVMA mutant (unknown origin); set-up: species or system Homo sapiens
BaF3 [4] = assay: Antiproliferative activity against mouse BAF3 cells harboring FL-EGFR D770-N771 ins NPG mutant after 72 hrs by celltiter-Glo luminescence assay; type: functional, cell-based; conditions: BaF3, 72 h
BaF3 [5] = assay: Antiproliferative activity against mouse BAF3 cells harboring FL-EGFR A763-Y764 ins FQEA mutant after 72 hrs by celltiter-Glo luminescence assay; type: functional, cell-based; conditions: BaF3, 72 h
BaF3 [6] = assay: Antiproliferative activity against mouse BAF3 cells harboring HER2-A775-G776 ins YVMA mutant after 72 hrs by celltiter-Glo luminescence assay; type: functional, cell-based; conditions: BaF3, 72 h
BaF3 [7] = assay: Inhibition of HER2-A775-G776 ins YVMA mutant in mouse BaF3 cells assessed as reduction in HER2 phosphorylation incubated for 24 hrs by Western blot analysis; type: cell-based; conditions: dose 1-100 nM
BaF3 [8] = assay: Inhibition of EGFR D770-N771 ins NPG mutant in mouse BaF3 cells assessed as reduction in EGFR phosphorylation at less than 1 nM incubated for 24 hrs by Western blot analysis; type: cell-based
[9] = target: Voltage-gated inwardly rectifying potassium channel KCNH2 (Homo sapiens, UniProt Q12809); assay: Binding affinity to human ERG; type: toxicity
Chain of Voltage-gated inwardly rectifying potassium channel KCNH2 (Q12809 whole entry): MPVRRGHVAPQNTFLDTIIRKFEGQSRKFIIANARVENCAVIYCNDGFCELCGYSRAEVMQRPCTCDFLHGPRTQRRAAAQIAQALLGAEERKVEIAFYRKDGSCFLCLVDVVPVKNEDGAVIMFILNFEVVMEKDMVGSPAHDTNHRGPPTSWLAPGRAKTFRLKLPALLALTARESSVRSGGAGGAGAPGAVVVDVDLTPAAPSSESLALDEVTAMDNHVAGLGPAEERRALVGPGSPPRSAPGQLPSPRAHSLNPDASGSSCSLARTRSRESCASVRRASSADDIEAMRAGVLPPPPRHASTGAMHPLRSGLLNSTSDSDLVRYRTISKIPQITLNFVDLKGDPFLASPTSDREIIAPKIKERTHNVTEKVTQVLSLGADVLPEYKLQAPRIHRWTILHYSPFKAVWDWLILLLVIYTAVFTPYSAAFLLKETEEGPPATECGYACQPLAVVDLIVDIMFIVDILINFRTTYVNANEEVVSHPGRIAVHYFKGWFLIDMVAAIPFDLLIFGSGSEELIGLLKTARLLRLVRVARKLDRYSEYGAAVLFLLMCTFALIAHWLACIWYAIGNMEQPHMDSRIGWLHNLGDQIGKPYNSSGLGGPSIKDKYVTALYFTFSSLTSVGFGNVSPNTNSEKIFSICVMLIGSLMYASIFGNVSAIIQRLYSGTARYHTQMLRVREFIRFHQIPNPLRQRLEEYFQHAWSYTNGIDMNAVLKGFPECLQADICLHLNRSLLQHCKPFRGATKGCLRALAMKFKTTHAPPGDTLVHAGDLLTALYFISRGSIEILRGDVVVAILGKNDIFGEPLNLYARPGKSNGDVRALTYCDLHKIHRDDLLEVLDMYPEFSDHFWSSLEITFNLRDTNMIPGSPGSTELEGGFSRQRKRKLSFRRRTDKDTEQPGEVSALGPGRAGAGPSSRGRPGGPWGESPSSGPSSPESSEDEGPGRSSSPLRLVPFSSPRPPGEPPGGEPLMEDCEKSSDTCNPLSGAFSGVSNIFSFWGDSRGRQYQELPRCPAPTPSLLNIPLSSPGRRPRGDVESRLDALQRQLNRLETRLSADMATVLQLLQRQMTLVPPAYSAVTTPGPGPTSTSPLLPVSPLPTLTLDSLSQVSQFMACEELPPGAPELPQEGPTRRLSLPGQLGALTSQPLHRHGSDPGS

[10] = target: T1, Ephrin type-A receptor 6 (Homo sapiens) (UniProt Q9UF33); assay: Inhibition of EPHA6 (unknown origin) at 500 nM relative to control
T1 sequence (whole entry): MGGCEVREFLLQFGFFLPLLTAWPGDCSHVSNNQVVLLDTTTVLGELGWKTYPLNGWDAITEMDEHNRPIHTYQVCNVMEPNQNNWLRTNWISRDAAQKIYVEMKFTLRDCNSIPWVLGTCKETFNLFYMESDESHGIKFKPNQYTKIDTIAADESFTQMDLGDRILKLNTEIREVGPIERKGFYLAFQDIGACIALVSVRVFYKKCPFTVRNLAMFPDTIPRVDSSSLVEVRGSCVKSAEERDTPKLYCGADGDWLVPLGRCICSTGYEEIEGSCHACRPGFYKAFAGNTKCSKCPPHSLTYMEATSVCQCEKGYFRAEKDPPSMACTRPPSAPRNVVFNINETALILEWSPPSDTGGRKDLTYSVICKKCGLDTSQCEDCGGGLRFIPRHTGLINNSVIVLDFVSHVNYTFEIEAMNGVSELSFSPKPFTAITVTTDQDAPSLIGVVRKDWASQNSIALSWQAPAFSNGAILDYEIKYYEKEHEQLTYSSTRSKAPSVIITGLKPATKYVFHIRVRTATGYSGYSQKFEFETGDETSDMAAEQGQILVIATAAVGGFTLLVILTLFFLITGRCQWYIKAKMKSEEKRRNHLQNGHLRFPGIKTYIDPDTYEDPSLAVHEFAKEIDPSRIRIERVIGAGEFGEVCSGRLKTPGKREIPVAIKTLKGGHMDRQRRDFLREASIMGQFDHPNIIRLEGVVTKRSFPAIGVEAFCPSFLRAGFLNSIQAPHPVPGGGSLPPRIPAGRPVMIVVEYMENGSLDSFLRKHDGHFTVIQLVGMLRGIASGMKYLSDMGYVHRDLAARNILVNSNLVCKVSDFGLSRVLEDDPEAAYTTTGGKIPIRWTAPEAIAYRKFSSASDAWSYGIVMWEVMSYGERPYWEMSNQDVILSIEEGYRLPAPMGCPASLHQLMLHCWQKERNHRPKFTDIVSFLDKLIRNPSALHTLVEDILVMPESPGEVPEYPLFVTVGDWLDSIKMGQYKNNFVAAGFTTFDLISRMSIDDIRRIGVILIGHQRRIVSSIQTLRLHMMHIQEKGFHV

[11] = target: Tyrosine-protein kinase BTK (Homo sapiens) (UniProt Q06187); assay: Inhibition of BTK (unknown origin) at 500 nM relative to control
Chain of Tyrosine-protein kinase BTK (Homo sapiens) (Q06187 whole entry): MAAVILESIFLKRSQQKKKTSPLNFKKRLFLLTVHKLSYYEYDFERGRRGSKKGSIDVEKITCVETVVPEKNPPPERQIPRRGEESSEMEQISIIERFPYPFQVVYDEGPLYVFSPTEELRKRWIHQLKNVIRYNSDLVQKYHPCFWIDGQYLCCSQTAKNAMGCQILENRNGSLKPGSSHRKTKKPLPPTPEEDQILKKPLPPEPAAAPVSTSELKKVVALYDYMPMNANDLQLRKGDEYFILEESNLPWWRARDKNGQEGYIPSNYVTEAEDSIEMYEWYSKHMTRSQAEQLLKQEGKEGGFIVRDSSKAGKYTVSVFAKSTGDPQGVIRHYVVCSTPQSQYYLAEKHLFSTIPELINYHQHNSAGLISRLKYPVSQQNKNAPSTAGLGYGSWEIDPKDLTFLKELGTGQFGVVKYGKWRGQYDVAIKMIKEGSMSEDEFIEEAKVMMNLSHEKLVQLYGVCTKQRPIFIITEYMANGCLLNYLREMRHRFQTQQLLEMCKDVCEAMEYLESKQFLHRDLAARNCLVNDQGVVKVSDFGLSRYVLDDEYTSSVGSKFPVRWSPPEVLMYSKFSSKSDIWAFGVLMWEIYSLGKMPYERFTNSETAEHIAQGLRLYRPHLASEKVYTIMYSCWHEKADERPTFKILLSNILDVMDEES

[12] = target: Protein-tyrosine kinase 6 (Homo sapiens) (UniProt Q13882); assay: Inhibition of BRK (unknown origin) at 500 nM relative to control
Chain of Protein-tyrosine kinase 6 (Homo sapiens) (Q13882 whole entry, looked up): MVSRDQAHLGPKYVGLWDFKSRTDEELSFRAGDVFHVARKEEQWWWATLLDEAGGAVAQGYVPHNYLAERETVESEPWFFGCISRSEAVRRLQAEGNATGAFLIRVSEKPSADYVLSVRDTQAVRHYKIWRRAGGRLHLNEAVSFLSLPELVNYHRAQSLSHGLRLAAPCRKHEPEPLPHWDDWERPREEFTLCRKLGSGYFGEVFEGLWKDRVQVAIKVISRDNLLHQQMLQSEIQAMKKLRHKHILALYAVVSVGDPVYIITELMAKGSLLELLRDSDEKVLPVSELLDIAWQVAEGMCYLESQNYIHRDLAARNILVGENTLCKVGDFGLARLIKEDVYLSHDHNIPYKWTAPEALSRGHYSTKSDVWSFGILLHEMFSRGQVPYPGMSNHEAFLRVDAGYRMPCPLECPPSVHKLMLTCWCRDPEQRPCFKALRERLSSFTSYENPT

[13] = target: Tyrosine-protein kinase Blk (Homo sapiens) (UniProt P51451); assay: Inhibition of BLK (unknown origin) at 500 nM relative to control
Chain of Tyrosine-protein kinase Blk (Homo sapiens) (P51451 2-505 limits assumed): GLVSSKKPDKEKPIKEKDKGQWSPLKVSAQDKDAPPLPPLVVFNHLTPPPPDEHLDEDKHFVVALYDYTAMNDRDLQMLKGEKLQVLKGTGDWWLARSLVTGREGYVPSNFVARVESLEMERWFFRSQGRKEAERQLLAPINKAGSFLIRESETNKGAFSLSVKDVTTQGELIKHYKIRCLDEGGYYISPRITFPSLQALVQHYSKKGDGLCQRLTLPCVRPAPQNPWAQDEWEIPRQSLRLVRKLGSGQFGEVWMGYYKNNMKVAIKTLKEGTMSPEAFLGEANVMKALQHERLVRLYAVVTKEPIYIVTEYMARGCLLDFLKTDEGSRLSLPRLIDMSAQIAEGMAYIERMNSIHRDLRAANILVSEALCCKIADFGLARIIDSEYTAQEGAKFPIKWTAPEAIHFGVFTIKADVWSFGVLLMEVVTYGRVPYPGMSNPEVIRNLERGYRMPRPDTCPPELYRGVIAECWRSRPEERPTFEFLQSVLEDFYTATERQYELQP

[14] = Tmax in Sprague-Dawley rat at 10 mg/kg, po measured upto 8 hrs by LC-MS/MS analysis; type: ADME, organism-based; conditions: in vivo
[15] = Cmax in Sprague-Dawley rat at 10 mg/kg, iv measured upto 8 hrs by LC-MS/MS analysis; type: ADME, organism-based; set-up: dose 10 mg/kg, time < 8 hrs, route iv; conditions: in vivo
[16] = Tmax in Sprague-Dawley rat at 10 mg/kg, iv measured upto 8 hrs by LC-MS/MS analysis; type: ADME, organism-based; conditions: in vivo
[17] = Half life in Sprague-Dawley rat at 10 mg/kg, iv measured upto 8 hrs by LC-MS/MS analysis; type: ADME, organism-based; conditions: in vivo
[18] = Clearance in Sprague-Dawley rat at 10 mg/kg, iv measured upto 8 hrs by LC-MS/MS analysis; type: ADME, organism-based; conditions: in vivo
[19] = Mean residence time in Sprague-Dawley rat at 10 mg/kg, iv measured upto 8 hrs by LC-MS/MS analysis; type: ADME, organism-based; conditions: in vivo
BaF3 [20] = assay: Antitumor activity against mouse BaF3 cells implanted in BALB/c mouse harboring EGFR D770-N771 ins NPG mutant assessed as tumor growth inhibition at 10 mg/kg, po administered once daily for 13 to 14 days; type: functional; conditions: time 13-14 day, read-out: TGI
BaF3 [21] = assay: Antitumor activity against mouse BaF3 cells implanted in BALB/c mouse harboring EGFR D770-N771 ins NPG mutant assessed as tumor growth inhibition at 20 mg/kg, po administered once daily for 13 to 14 days; type: functional; conditions: time 13-14 day, read-out: TGI
BaF3 [22] = assay: Antitumor activity against mouse BaF3 cells implanted in BALB/c mouse harboring HER2-A775-G776 ins YVMA mutant assessed as tumor growth inhibition at 10 mg/kg, po administered once daily for 13 to 14 days; type: functional; conditions: time 13-14 day, read-out: TGI
BaF3 [23] = assay: Antitumor activity against mouse BaF3 cells implanted in BALB/c mouse harboring HER2-A775-G776 ins YVMA mutant assessed as tumor growth inhibition at 20 mg/kg, po administered once daily for 13 to 14 days; type: functional; conditions: time 13-14 day, read-out: TGI
BaF3 [24] = assay: In vivo inhibition of HER2-A775-G776 ins YVMA mutant in BALB/c mouse implanted with mouse BaF3 cells assessed as reduction in HER2 phosphorylation at 10 to 20 mg/kg, po administered once daily for 13 to 14 days by Western blot analysis; type: functional, organism-based; conditions: dose 10-20 mg/kg, time 13-14 day

Chain of Receptor tyrosine-protein kinase erbB-2 (P04626 whole entry): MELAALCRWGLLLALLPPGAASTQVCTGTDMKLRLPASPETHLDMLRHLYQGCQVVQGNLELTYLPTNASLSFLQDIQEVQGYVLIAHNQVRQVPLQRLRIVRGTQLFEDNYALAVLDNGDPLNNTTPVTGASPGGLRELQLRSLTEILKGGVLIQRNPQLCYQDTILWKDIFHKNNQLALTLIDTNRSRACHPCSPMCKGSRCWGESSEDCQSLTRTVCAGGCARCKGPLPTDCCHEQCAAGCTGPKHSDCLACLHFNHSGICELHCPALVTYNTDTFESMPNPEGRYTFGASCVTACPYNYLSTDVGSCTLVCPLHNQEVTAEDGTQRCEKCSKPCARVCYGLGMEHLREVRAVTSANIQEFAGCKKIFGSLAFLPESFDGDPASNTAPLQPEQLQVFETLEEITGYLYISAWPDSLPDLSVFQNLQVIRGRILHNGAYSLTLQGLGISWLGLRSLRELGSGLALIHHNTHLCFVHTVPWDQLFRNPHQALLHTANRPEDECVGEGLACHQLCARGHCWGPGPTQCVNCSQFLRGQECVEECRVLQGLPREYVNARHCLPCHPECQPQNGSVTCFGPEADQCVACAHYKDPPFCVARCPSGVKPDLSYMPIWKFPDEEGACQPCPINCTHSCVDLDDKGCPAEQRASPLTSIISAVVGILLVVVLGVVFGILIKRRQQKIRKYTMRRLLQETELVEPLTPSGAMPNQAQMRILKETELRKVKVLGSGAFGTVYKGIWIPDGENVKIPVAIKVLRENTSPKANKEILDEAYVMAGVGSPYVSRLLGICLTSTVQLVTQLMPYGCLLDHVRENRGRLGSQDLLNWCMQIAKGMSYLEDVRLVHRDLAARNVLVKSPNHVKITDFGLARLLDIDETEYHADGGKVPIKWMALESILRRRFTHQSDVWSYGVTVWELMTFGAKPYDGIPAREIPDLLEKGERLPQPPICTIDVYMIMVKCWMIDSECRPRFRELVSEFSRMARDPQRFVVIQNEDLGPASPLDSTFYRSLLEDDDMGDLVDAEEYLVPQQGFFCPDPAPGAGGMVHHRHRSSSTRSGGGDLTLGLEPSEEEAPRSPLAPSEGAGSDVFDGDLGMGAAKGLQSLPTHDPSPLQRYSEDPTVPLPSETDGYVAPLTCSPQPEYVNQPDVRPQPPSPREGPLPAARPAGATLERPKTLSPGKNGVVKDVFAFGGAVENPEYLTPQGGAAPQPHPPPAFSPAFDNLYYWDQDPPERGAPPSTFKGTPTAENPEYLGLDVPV

Work on `C=CC(=O)N1CCC(Oc2cc3c(Nc4cccc(Cl)c4F)ncnc3cc2O[C@H]2CCOC2)CC1` yielded an IC50 [1] of 1.07 nM, an IC50 [2] of 1.42 nM and an IC50 [3] of 0.92 nM. The IC50 (BaF3 [4]) was 0.79 nM, the IC50 (BaF3 [5]) was 0.29 nM and the IC50 (BaF3 [6]) was 0.95 nM. The inhibition (BaF3 [7]) was “Dose-Dependent Effect”, the inhibition (BaF3 [8]) was “Active” and the IC50 [9] was greater than 15000 nM. For the same molecule, the inhibition [10] was greater than 20%, the inhibition [11] was greater than 20% and the inhibition [12] was greater than 20%. It also gave an inhibition [13] greater than 20%, a Tmax [14] of 1.33 h and a Cmax [15] of 8270 ng/mL. It also gave a Tmax [16] of 4.98 min, a half-life [17] of 0.89 h and a clearance [18] of 2.32 mL/min. It also gave an MRT [19] of 1.89 h, an inhibition in vivo at 10 mg/kg (BaF3 [20]) of 67% and an inhibition in vivo at 20 mg/kg (BaF3 [21]) of 83%. The inhibition in vivo at 10 mg/kg (BaF3 [22]) was 75%, the inhibition in vivo at 20 mg/kg (BaF3 [23]) was 90% and the inhibition (BaF3 [24]) was “Active”.

From ChEMBL document CHEMBL5252585, “Structure optimization and discovery of novel compound for the treatment of insertion mutations within exon 20 of EGFR and HER2” (Bioorg Med Chem, 2023)
